{"source": "patent US10780069B2", "about": "“Use of GC-1 in transplant related population” (University of Pittsburgh—Of the Commonwealth System of …, priority 2017, dated 2020)", "key": {"[1]": {"system": "hMet-S45Y-β-catenin HCC model", "assay": "GC-1 diet in hMet-S45Y-β-catenin HCC model", "type": "in vivo, mice", "conditions": "for increase in gene expression of deiodinase (RT-PCR, liver): p<0.001", "protocol": "SBTT plasmids and HTVI have been described previously (Tao et al., Hepatology 2016, 64:1587-605). Briefly, […] pT3-EF5α-hMet-V5 and pT3-EF5α-S45Y-β-catenin-Myc combination along with the transposase in a ratio of 25:1 were diluted in 2 ml of normal saline (0.9% NaCl), filtered through 0.22 μm filter (Millipore), and injected into the lateral tail vein of 23 FVB mice that were around 6-week-old, in 5-7 seconds. These mice are referred henceforth as hMet-mutant-β-catenin mice. Four weeks after injection, hMet-mutant-β-catenin mice were randomized into two groups. One group was kept on basal diet (n=12) and another group was switched to GC-1-supplemented diet (5 mg/kg of diet, Medchem Express) (n=11). Animals on control diet were sacrificed at either 21 days (n=8) or 10 days (n=4) after initiation of diet. Similarly, animals on GC-1-diet were sacrificed at either 21 days (n=7) or 10 days (n=4) after initiation of the diet. The animals were given access to food and water ad libitum with a 12-hour light/dark daily cycle. One intraperitoneal injection of BrdU was performed on day 9 during 10 days of GC-1 or basal diet treatment and livers were harvested 24 hours later. Guidelines for the Care and Use of Laboratory Animals were followed.\nFour micron formalin-fixed sections were deparaffinized in graded xylene and alcohol and rinsed in PBS. To block endogenous peroxidase activity, the sections were incubated in 3% hydrogen peroxide (Sigma). For antigen retrieval, slides were microwaved in citrate buffer followed by blocking with Superblock (ScyTek Laboratories, Logan, Utah) for 10 minutes. Sections were incubated overnight at 4° C. or 1 hour room temperature in the following antibodies: cyclin-D1 (Thermo-Scientific, Fremont, Calif.), Glutamine synthetase, Ki-67, Myc-tag and CD45 (Santa Cruz Biotechnology, Dallas, Tex.). Sections were then incubated with species-specific secondary horseradish peroxidase-conjugated antibody for 30 minutes at room temperature. Sections stained with antibodies were incubated with streptavidin-biotin and signal was detected with DAB. Cell death was evaluated in liver sections by terminal deoxynucleotidyl transferase dUTP nick end labeling (TUNEL) using manufacturer's instructions available with the kit (EMD-Millipore). BrdU was stained with mouse antibody (Becton Dickinson, Franklin Lakes, N.J.) as previously described (Alvarado et al., Gene Expr 2016, 17:19-34). Briefly, tissue sections were deparaffinized, exposed to 0.3% hydrogen peroxide in deionized water for 10 minutes to block endogenous peroxidase, treated with 2N HCl, incubated with trypsin 0.1% for 20 minutes and then with normal goat serum for 20 minutes at room temperature. Sections were then incubated overnight in cold room with anti-BrdU monoclonal antibody, followed by biotinylated goat anti-mouse IgG. DAB kit was then applied, and sections were counterstained with hematoxylin.\nFor quantification of Ki-67 immunohistochemistry (IHC), pictures were taken at 200× magnification from either tumor or non-tumor areas in the same slide. Each picture was separated into DAB staining channel and hematoxylin staining channel by Color Deconvolution using Imagej Fiji. To quantify the number of Ki-67 positive nuclei on each picture, the DAB staining on the DAB channel was highlighted with the threshold of 48 and then quantified with Analyze Particles. All particles of areas smaller than 100 pixels were excluded. To quantify the total number of nuclei on each picture the hematoxylin staining on the hematoxylin channel was highlighted with the threshold of 205 and then quantified with Analyze Particles with similar exclusion of small areas. The percentage of Ki-67-positive nuclei on each picture was calculated by dividing the number of particles counted from DAB channel by the number of particles counted from the hematoxylin channel. […]"}, "[2]": {"system": "β-catenin-TCF4 reporter activity in Hep3B cells (wild-type CTNNB1)", "assay": "TopFlash reporter assay in Hep3B cells", "type": "cell-based, human", "conditions": "7 μM GC-1 (methods: 5-7 μM, 24 hours), vs DMSO", "excerpt": "Three liver tumor cell lines Hep3B, HepG2 and Snu-398 cells were obtained from ATCC (Manassas, Va.). Cells were transfected simultaneously with Renilla reniformis luciferase (pRL-TK; Promega, Madison, Wis.) as a transfection control and TopFlash firefly luciferase plasmids (Upstate Biotechnology, Lake Placid, N.Y.), which contains three copies of the Tcf/Lef sites upstream of a thymidine kinase (TK) promoter and the firefly luciferase gene using Lipofectamine 2000 (Life Technologies). Twenty-four hours after transfection, cells were treated with either DMSO (Fisher Scientific) or 5-7 μM GC-1 (Medchem Express, Monmouth Junction, N.J.) for 24 hours. Lysates were harvested using the Dual-Luciferase Reporter Assay System (Promega, Madison, Wis.). Firefly luciferase signals were normalized to Renilla luciferase and ratio between groups compared by student's t-test to determine significance. P<0.05 was considered significant."}}, "note": "“Also recorded” adds a separate entry of the source.", "data": [{"smiles": "Cc1cc(OCC(=O)O)cc(C)c1Cc1ccc(O)c(C(C)C)c1", "note": "[GC-1, Sobetirome]", "values": [{"measurement": "increase in gene expression of deiodinase (RT-PCR, liver)", "setting": "[1]; 10-days of GC-1-diet vs basal diet", "value": "around 10 fold"}, {"measurement": "increase in gene expression of deiodinase (RT-PCR, liver)", "setting": "[1]; 21-days of GC-1-diet vs basal diet", "value": "around 40 fold"}, {"measurement": "cyclin-D1 and GS IHC of tumors", "setting": "[1]; 10 days GC-1 diet", "value": "continued to be positive"}, {"measurement": "tumor foci by H&E and Myc-tag staining", "setting": "[1]; 10 days GC-1 diet", "value": "Smaller and fewer tumor foci"}, {"measurement": "gross liver appearance", "setting": "[1]; 10 days GC-1 diet vs basal diet", "value": "indistinguishable"}, {"measurement": "liver weight to body weight ratio (LW/BW)", "setting": "[1]; 10 days GC-1 diet vs basal diet, p=0.0022", "value": "significant decrease"}, {"measurement": "BrdU and Ki-67 IHC within tumor foci", "setting": "[1]; 10 days GC-1 vs basal diet", "value": "notable decrease"}, {"measurement": "GS levels, WB", "setting": "[1]; 10 days GC-1 vs basal diet", "value": "modest decreases"}, {"measurement": "Ki-67-positive cell numbers in non-tumor areas", "setting": "[1]; 10 days GC-1 vs basal diet", "value": "No differences"}, {"measurement": "TUNEL-positive cells", "setting": "[1]; 10 days GC-1 vs basal diet", "value": "Comparable numbers"}, {"measurement": "cyclin-D1 levels, WB", "setting": "[1]; 10 days GC-1 vs basal diet", "value": "marginal decreases"}, {"measurement": "number of CD45-positive cells (inflammation)", "setting": "[1]; 10 days GC-1 vs basal diet", "value": "No differences"}, {"measurement": "total and active β-catenin levels, WB", "setting": "[1]; 10 days GC-1 vs basal diet", "value": "modest decrease in the levels of total but not active β-catenin"}, {"measurement": "percentage of Ki-67-positive cells within tumor nodules", "setting": "[1]; 10 days GC-1 vs basal diet, p<0.01", "value": "significant decrease"}, {"measurement": "p-AKT levels, WB", "setting": "[1]; 10 days GC-1 vs control", "value": "did not have any effect"}, {"measurement": "p-ERK1 and p-ERK2, WB", "setting": "[1]; 10 days GC-1 vs control", "value": "dramatically decreased"}, {"measurement": "p-Met (Tyr 1234/1235), WB, two independent antibodies", "setting": "[1]; 10 days GC-1 vs control", "value": "profound decrease"}, {"measurement": "p-STAT3, WB", "setting": "[1]; 10 days GC-1 vs control", "value": "profound decrease"}, {"measurement": "total AKT levels, WB", "setting": "[1]; 10 days GC-1 vs control", "value": "no change"}, {"measurement": "total ERK levels, WB", "setting": "[1]; 10 days GC-1 vs control", "value": "unaffected"}, {"measurement": "total Met levels, WB", "setting": "[1]; 10 days GC-1 vs control", "value": "modestly decreased"}, {"measurement": "total STAT3 levels, WB", "setting": "[1]; 10 days GC-1 vs control", "value": "overall reduced"}, {"measurement": "Myc-tag levels by Western blot", "setting": "[1]; 21 days GC-1 diet", "value": "modest decrease"}, {"measurement": "cyclin-D1 IHC of tumor nodules", "setting": "[1]; 21 days GC-1 diet", "value": "strongly positive"}, {"measurement": "gross liver appearance", "setting": "[1]; 21 days GC-1 diet", "value": "relatively smooth surface and smaller nodules"}, {"measurement": "tumor nodules by H&E and Myc-tag IHC", "setting": "[1]; 21 days GC-1 diet", "value": "notably smaller tumor nodules"}, {"measurement": "liver weight to body weight ratio (LW/BW)", "setting": "[1]; 21 days GC-1 diet vs basal diet, p=0.0506", "value": "almost significant decrease"}, {"measurement": "GS levels, WB", "setting": "[1]; 21 days GC-1 vs basal diet", "value": "modest decrease"}, {"measurement": "Ki-67-positive cells in non-tumor areas", "setting": "[1]; 21 days GC-1 vs basal diet", "value": "insignificant"}, {"measurement": "cyclin-D1 levels, WB", "setting": "[1]; 21 days GC-1 vs basal diet", "value": "no change"}, {"measurement": "p-AKT levels, WB", "setting": "[1]; 21 days GC-1 vs basal diet", "value": "comparable levels"}, {"measurement": "p-Met (Tyr 1234/1235), WB", "setting": "[1]; 21 days GC-1 vs basal diet", "value": "dramatic decrease"}, {"measurement": "p-STAT3 levels, WB", "setting": "[1]; 21 days GC-1 vs basal diet", "value": "striking decrease"}, {"measurement": "percentage of Ki-67 positive tumor cells within nodules", "setting": "[1]; 21 days GC-1 vs basal diet", "value": "insignificant differences"}, {"measurement": "total AKT levels, WB", "setting": "[1]; 21 days GC-1 vs basal diet", "value": "marginally increased"}, {"measurement": "total Met levels, WB", "setting": "[1]; 21 days GC-1 vs basal diet", "value": "only marginally and variably decreased"}, {"measurement": "total STAT3 levels, WB", "setting": "[1]; 21 days GC-1 vs basal diet", "value": "relatively unaltered"}, {"measurement": "total and active β-catenin levels, WB", "setting": "[1]; 21 days GC-1 vs basal diet", "value": "remained unaltered"}, {"measurement": "total and p-ERK1 and total and p-ERK2, WB", "setting": "[1]; 21 days GC-1 vs basal diet", "value": "notably decreased"}, {"measurement": "TUNEL-positive cells (cell death)", "setting": "[1]; 21 days, basal diet vs GC-1", "value": "More TUNEL-positive cells were evident in the basal diet group"}, {"measurement": "Glutamine synthetase (GS) IHC of tumors", "setting": "[1]; 21 days, both groups", "value": "uniformly and comparably positive"}, {"measurement": "TopFlash luciferase reporter activity", "setting": "[2]", "value": "no significant effect; also recorded: insignificant differences"}]}]}
